Assay results as given in ChEMBL document CHEMBL5143509, “An efficient strategy for digging protein-protein interactions for rational drug design - A case study with HIF-1α/VHL” (Eur J Med Chem, 2022).
Calls of active or inactive are those of the source. No cut-off for these calls is given here.

What was measured:
[1] = Binding affinity to VBC (unknown origin) using FAM-DEALA-Hyp-YIPD as substrate by fluorescence polarization assay; parameters: species or system Homo sapiens
HeLa [2] = assay: Cytotoxicity against human HeLa cells assessed as effect on cell viability at 100 uM measured after 24 hrs by crystal violet staining based assay; assay type: toxicity
[3] = Octanol/water partition coefficient, logD of the compound at pH 7.4; assay type: physicochemical
[4] = Octanol-water partition coefficient, logP of the compound; assay type: physicochemical
[5] = biological target: Hypoxia-inducible factor 1-alpha (Homo sapiens) (UniProt Q16665); assay: Stabilization of HIF-1 alpha in human HeLa cells at 100 uM incubated for 24 hrs by Western blot analysis; assay type: cell-based
HeLa [6] = assay: Stabilization of HIF-1 alpha OH in human HeLa cells at 100 uM incubated for 24 hrs by Western blot analysis; assay type: cell-based
786-0 = assay: Cytotoxicity against human 786-0 cells assessed as effect on cell viability at 100 uM measured after 24 hrs by MTT assay; assay type: toxicity, cell-based; settings: 786-0, 24 h
U2OS [7] = assay: Upregulation of HIF-1 alpha in human U2OS cells at 100 uM incubated for 24 hrs by Western blot analysis; assay type: functional, cell-based
HeLa [8] = assay: Upregulation of HIF-1 alpha in human HeLa cells at 100 uM incubated for 24 hrs by Western blot analysis; assay type: functional, cell-based
U2OS [9] = assay: Cytotoxicity against human U2OS cells assessed as effect on cell viability at 100 uM measured after 24 hrs by MTT assay; assay type: toxicity, cell-based

Sequence of Hypoxia-inducible factor 1-alpha (Homo sapiens) (Q16665 whole entry, looked up): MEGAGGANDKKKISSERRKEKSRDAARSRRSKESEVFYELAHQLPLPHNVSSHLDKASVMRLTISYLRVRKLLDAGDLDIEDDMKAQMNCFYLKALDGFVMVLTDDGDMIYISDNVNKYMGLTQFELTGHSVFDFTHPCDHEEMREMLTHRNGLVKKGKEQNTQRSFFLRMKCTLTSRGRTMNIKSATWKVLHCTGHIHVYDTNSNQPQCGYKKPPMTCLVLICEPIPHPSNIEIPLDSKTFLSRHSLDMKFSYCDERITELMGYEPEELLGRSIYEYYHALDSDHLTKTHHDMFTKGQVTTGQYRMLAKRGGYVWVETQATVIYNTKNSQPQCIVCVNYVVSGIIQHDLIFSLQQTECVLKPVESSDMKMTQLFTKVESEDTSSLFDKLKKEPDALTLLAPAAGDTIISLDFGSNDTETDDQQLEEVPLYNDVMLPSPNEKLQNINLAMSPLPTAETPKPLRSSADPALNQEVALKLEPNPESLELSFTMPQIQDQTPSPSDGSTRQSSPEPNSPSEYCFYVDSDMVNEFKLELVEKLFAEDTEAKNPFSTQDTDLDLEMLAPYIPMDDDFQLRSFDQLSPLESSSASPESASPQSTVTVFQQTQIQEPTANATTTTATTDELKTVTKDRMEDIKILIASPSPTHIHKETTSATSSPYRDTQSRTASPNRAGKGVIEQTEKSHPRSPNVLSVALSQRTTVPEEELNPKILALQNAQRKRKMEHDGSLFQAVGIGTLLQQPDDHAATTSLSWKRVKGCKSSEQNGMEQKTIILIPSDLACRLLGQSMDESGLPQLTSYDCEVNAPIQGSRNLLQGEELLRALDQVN

| Compound | IC50 [1] [nM] | Activity (HeLa [2]) | logD ([3]; read-out: logD) | logP ([4]; read-out: logP) | Activity [5] [fold] | Activity (HeLa [6]) [fold] | Activity (786-0) | Activity (U2OS [7]) | Activity (HeLa [8]) | Activity (U2OS [9]) | logD [3] | logP [4] |
| --- | --- | --- | --- | --- | --- | --- | --- | --- | --- | --- | --- | --- |
| CC(=O)N[C@H](C(=O)N1C[C@H](O)C[C@H]1C(=O)N[C@@H](c1ccccc1)c1ccc(-c2scnc2C)cc1)C(C)(C)C | 230 | Non-Toxic | 2.55 | 2.55 | 2.21 | 1.01 | Non-Toxic | – | – | – | – | – |
| O=C(O)CNC(=O)c1c(O)c2ccccc2n(Cc2ccccc2)c1=O | – | – | – | – | – | – | – | Active | Active | – | – | – |
| CC(=O)N[C@H](C(=O)N1C[C@H](O)C[C@H]1C(=O)N[C@@H](CCc1ccc(Br)cc1)c1ccc(-c2scnc2C)cc1)C(C)(C)C | 189 | Non-Toxic | 4.08 | 4.08 | 1.88 | 0.91 | Non-Toxic | Active | – | – | – | – |
| CCOC(=O)CC[C@H](NC(=O)[C@@H]1C[C@@H](O)CN1C(=O)[C@@H](NC(C)=O)C(C)(C)C)c1ccc(-c2scnc2C)cc1 | 81 | Non-Toxic | 1.59 | 1.59 | 1.64 | 1.31 | Non-Toxic | Active | – | Non-Toxic | – | – |
| CC(=O)N[C@H](C(=O)N1C[C@H](O)C[C@H]1C(=O)N[C@@H](CCC(C)(C)C)c1ccc(-c2scnc2C)cc1)C(C)(C)C | 166 | Non-Toxic | 3.21 | 3.21 | 2.22 | 1.21 | Non-Toxic | – | – | – | – | – |
| CC(=O)N[C@H](C(=O)N1C[C@H](O)C[C@H]1C(=O)N[C@@H](CCc1ccncc1)c1ccc(-c2scnc2C)cc1)C(C)(C)C | 223 | Non-Toxic | – | – | 0.99 | 2.25 | Non-Toxic | – | – | Non-Toxic | 2.7 | 2.18 |
| CC(=O)N[C@H](C(=O)N1C[C@H](O)C[C@H]1C(=O)N[C@@H](CCc1ccc(O)cc1)c1ccc(-c2scnc2C)cc1)C(C)(C)C | 193 | Non-Toxic | 3.08 | 3.08 | 1.79 | 0.75 | Non-Toxic | Active | – | – | – | – |
| CC(=O)N[C@H](C(=O)N1C[C@H](O)C[C@H]1C(=O)NCc1ccc(-c2scnc2C)cc1)C(C)(C)C | 204 | Non-Toxic | 0.94 | 0.94 | 1 | 1 | – | – | – | – | – | – |
| CC(=O)N[C@H](C(=O)N1C[C@H](O)C[C@H]1C(=O)N[C@@H](CCC(=O)O)c1ccc(-c2scnc2C)cc1)C(C)(C)C | 63 | Non-Toxic | -0.44 | 1.02 | 1.91 | 0.99 | Non-Toxic | Active | – | Non-Toxic | – | – |
| CCCC[C@H](NC(=O)[C@@H]1C[C@@H](O)CN1C(=O)[C@@H](NC(C)=O)C(C)(C)C)c1ccc(-c2scnc2C)cc1 | 350 | Non-Toxic | 2.75 | 2.75 | 1.4 | 1.4 | Non-Toxic | – | – | Non-Toxic | – | – |
